Data: PMC5614861 (Organic & biomolecular chemistry, 2017)
Several values for one entry are separate records, joined by “and”; a condition that tells them apart may be missing. Equal values may be shown once. Numbered stars: 1 amine (or outer) side, 2 acyl side, 3 side chain; on linkers, the order of the positions; unused ones are H or OH. Bridge positions count the residues as written; N and C are the ends. Square brackets hold non-standard residues; d marks the D form. Peptide text beside a SMILES is read from it. X2 = O=C([C@@H]1C[C@H](n2cc(C3=CC=C[CH]3[Fe][CH]3C=CC=C3)nn2)CN1[*:1])[*:2]; X1 = O=C([C@@H]1C[C@H](n2cc(-c3ccc(-c4cccs4)cc3)nn2)CN1[*:1])[*:2]

Columns and labels:
[1] = target: monomeric wild type gp120 YU-2 (Human immunodeficiency virus type 1 group M subtype B, UniProt P35961); test: Isothermal titration calorimetry; type: binding, HIV-1; details: ITC, 25°C, 1× PBS pH 7.3
HOS.T4.R5 cells = test: Cytotoxicity / cell viability assay; type: cell-based; details: WST-1, 24 h post-exposure, highest concentration used 100 μM
[2] = target: HIV-1 YU-2 gp120 binding to sCD4 (Human immunodeficiency virus type 1 group M subtype B, UniProt P35961); test: SPR competition assay, inhibition of gp120 binding to CD4; details: 250 nM YU-2 gp120, 25°C, PBS pH 7.4, triplicate
HIV-1Bal.01 = type: cell-based; details: cutoff 10 μM

Molecule | ΔH [1] | ΔS [1] [kcal/mol] | −TΔS [1] [kcal/mol] | Cytotoxicity (cell viability) (HOS.T4.R5 cells) | Inhibition of gp120 binding to CD4 [2] | Activity designation in HIV-1Bal.01 infection inhibition assay (HIV-1Bal.01)
CC[C@H](C)[C@@H]1NC(=O)[C@H](CC(N)=O)NC(=O)[C@@H](N)CC(=O)NCCCC[C@@H](C(N)=O)NC(=O)[C@H](Cc2c[nH]c3ccccc23)NC(=O)[C@@H]2C[C@H](n3cc(C4=CC=C[CH]4[Fe][CH]4C=CC=C4)nn3)CN2C1=O (stereo partly drawn) [cPT 3] (H-DNI[X2]WK-NH2; lactam 1-6) | -5.96 kcal/mol and -5.96 ± 0.13 kcal/mol | 0.00922 | -2.75 | – | – | –
CC[C@H](C)[C@@H]1NC(=O)[C@H](CC(N)=O)NC(=O)[C@@H](N)CC(=O)NCCCC[C@@H](C(N)=O)NC(=O)[C@H](Cc2c[nH]c3ccccc23)NC(=O)[C@@H]2C[C@H](n3cc(-c4ccc(-c5cccs5)cc4)nn3)CN2C1=O [cPT 36] (H-DNI[X1]WK-NH2; lactam 1-6) | -4.07 ± 0.06 kcal/mol | 0.0159 | -4.74 | no cytotoxicity was detected | inhibited | –
cPT 11 | – | – | – | – | – | weak (the compound showed weak inhibition (less than 50%) at 10 μM)
